Laboratory results published in US8840899B2, “Use of mTOR inhibitors to enhance T cell immune responses” (priority 2008, dated 2014).
“Also recorded” adds a separate entry of the source. Like-named read-outs stand apart in the source and are kept apart here.

Assays:
FKBP12 = format: cell-based, mice; conditions: GFP^+ P14 cells, Day 7 or 8 post-infection
[1] = system: LCMV-specific P14 transgenic CD8^+ T cells; parameters: species or system mice; conditions: mouse, in vivo
raptor = format: cell-based, mice; conditions: GFP^+ P14 cells, Day 7 or 8 post-infection
[2] = system: vaccinia virus (VV) that expresses the GP33 epitope (VVgp33); parameters: species or system mice; conditions: mouse, in vivo
P14 memory cells = format: in vivo, mice
[3] = system: virus-specific memory CD4^+ T cells; parameters: species or system mice; conditions: mouse, in vivo
[4] = system: virus-specific CD8^+ T cells; parameters: species or system mice; conditions: mouse, in vivo
[5] = system: GP33 epitope-specific memory CD8^+ T cells (P14 cells); test: Rapamycin during T cell maintenance phase, adoptively transferred CFSE-labeled memory P14 cells; format: in vivo, mice
[6] = system: CD62L^low effector CD8^+ T cells (P14 cells); format: in vivo, mice
P14 cells = format: in vivo, mice
[7] = system: antigen-specific CD8^+ T cells; parameters: species or system mice; conditions: mouse, in vivo
P14 memory T cells = format: in vivo; conditions: VVGP33 challenge, vs memory cells of untreated mice
LCMV = system: LCMV; parameters: species or system mice; conditions: mouse, in vivo
[8] = system: FKBP12 RNAi retrovirus transduced P14 cells; parameters: species or system mice; conditions: mouse, in vivo
[9] = system: LCMV-specific CD8^+ T cells (P14 cells); parameters: species or system mice; conditions: mouse, in vivo
[10] = system: vaccinia virus-specific CD8^+ T cells; parameters: species or system Rhesus macaques (Macaca mulatta); conditions: rhesus monkey, in vivo
[11] = system: virus-specific CD8^+ T cells; parameters: species or system mice; conditions: mouse, in vivo; remark: listed apart in the source
[12] = rhesus macaques, approximately 10-50 μg/kg/day intramuscularly
[13] = mice
[14] = system: virus-specific CD8^+ T cells; parameters: species or system mice; conditions: mouse, in vivo; remark: listed apart in the source
[15] = system: DbGP33 tetramer-positive P14 cells; format: in vivo, mice
[16] = system: virus-specific CD8^+ T cells; parameters: species or system mice; conditions: mouse, in vivo; remark: listed apart in the source
[17] = system: GP33 epitope-specific CD8^+ T cells; format: in vivo, mice
[18] = system: DbGP33 tetramer-positive CD8^+ T cells; test: rAd5-LCMV-GP vaccination with low dose rapamycin; format: in vivo, mice
Protocol: Mice were vaccinated with rAd5-LCMV-GP (1×10^10 viral particles) by intramuscular injection on Day 0 and either left untreated or treated with rapamycin at a dose of 0.075 mg/kg from Day −1 to Day 34 (FIG. 19A). The number of DbGP33 tetramer-positive CD8^+ T cells in the spleen of treated and untreated mice was determined by FACS on Day 35 post-vaccination. […] The phenotype of virus-specific CD8^+ T cells was also evaluated by FACS (FIG. 19C).

[19] = Day 31 post-infection, spleen, relative to control

Compound: FKBP12 shRNA (guide GCCAAACTGATAATCTCCTCA)
- Expression of FKBP12 protein (FKBP12): significantly reduced

Compound: raptor shRNA (guide GCCCGAGTCTGTGAATGTAAT)
- expression of phenotypic markers on antigen-specific T cells [1]: identical to what was observed upon knockdown of mTOR
- virus-specific memory T cell phenotype in spleen [1]: high quality memory T cell phenotype (CD127^High, CD62L^high KLRG-1^Low)
- Expression of raptor protein (raptor): significantly reduced

Compound: CO[C@H]1C[C@@H]2CC[C@@H](C)[C@@](O)(O2)C(=O)C(=O)N2CCCC[C@H]2C(=O)O[C@H]([C@H](C)C[C@@H]2CC[C@@H](O)[C@H](OC)C2)CC(=O)[C@H](C)/C=C(\C)[C@@H](O)[C@@H](OC)C(=O)[C@H](C)C[C@H](C)/C=C/C=C/C=C/1C [rapamycin, (3S,6R,7E,9R,10R,12R,14S,15E,17E,19E,21S,23S,26R,27R,34aS)-9,10,12,13,14,21,22,23,24,25,26,27,32,33,34,34a-hexadecahydro-9,27-dihydroxy-3-[(1R)-2-[(1S,3R,4R)-4-hydroxy-3-methoxycyclohexyl]-1-methylethyl]-10,21-dimethoxy-6,8,12,14,20,26-hexamethyl-23,27-epoxy-3H-pyrido[2,1-c][1,4]-oxaazacyclohentriacontine-1,5,11,28,29(4H,6H,31H)-pentone]
- protective immunity (viral control) [2]: better
- viral titer in the ovaries [2]: reduction in viral titer
- percentage of P14 memory cells that divided more than twice in spleen (P14 memory cells; 30 days post-transfer, control 36.8%): 46.1%
- percentage of divided memory T cells in PBMC (P14 memory cells; memory cells from rapamycin-treated mice (Example 1), up to 30 days post-transfer): increased
- homeostatic proliferation of memory CD8^+ T cells generated with rapamycin (P14 memory cells; rapamycin Day -1 to Day 33, 30 days post transfer, vs memory cells of untreated mice): superior
- number of IFN-γ^+ CD4^+ T cells upon GP61 peptide stimulation [3]: higher number of IFN-γ^+ cells
- Bcl-2 expression of virus-specific CD8^+ T cells in lymph node [4]: higher than control
- cell surface markers of virus-specific CD8^+ T cells in lymph node [4]: no significant change
- number of memory cells generated [4]: not affected
- number of virus-specific CD8^+ T cells in the spleen [4]: did not reduce
- number of virus-specific CD8^+ T cells with phenotype of highly functional memory cells [4]: significantly higher number
- phenotype of GP33, GP276 and NP396 epitope-specific CD8^+ T cells in spleen [4]: high quality memory T cells (CD127^High, CD62L^High, KLRG-1^Low, CD27^High, Bcl-2^High)
- number of virus-specific CD8^+ T cells in the spleen ([5]; 0.6 mg/kg daily from Day -1, Day 42 post-transfer, vs untreated): decreased
- percentage of virus-specific CD8^+ T cells that divided more than twice (CFSE) ([5]; 0.6 mg/kg daily, Day 42 post-transfer, untreated 42.5%): 17.8%
- CD62L re-expression on transferred virus-specific CD8^+ T cells ([6]; 0.6 mg/kg daily after transfer, blood/PBMC, vs control mice): quickly re-expressed CD62L; also recorded: re-expressed CD62L much faster
- absolute number of CD62L^High virus-specific CD8^+ T cells in spleen ([6]; 0.6 mg/kg daily, Day 26 post-transfer, vs untreated): greater
- cell division during CD62L re-expression (CFSE) ([6]; effector to memory transition phase after transfer): no or minimal cell division; also recorded: no cell division
- number of virus-specific CD8^+ T cells (P14) in spleen (P14 cells; 0.6 mg/kg daily from Day 8 after VV infection, Day 31, vs control): similar
- expression of CD27 and Bcl-2 on virus-specific CD8^+ T cells (P14 cells; [19]): higher
- expression of KLRG-1 on virus-specific CD8^+ T cells (P14 cells; [19]): lower
- CD127 and CD62L expression on virus-specific CD8^+ T cells (P14 cells; Day 31 post-infection, spleen, vs control): no significant difference
- incorporation of BrdU by antigen-specific CD8^+ T cells [7]: minimal incorporation
- recall responses of memory CD8^+ T cells generated with rapamycin (P14 memory T cells): superior
- LCMV titer relative to untreated mice (LCMV): significantly increased
- effect of rapamycin treatment on phenotype / memory differentiation of FKBP12 knockdown P14 cells [8]: diminished; also recorded: almost disappeared
- expression of memory markers (CD127, CD62L, Bcl2) on FKBP12 knockdown P14 cells under rapamycin [8]: did not show increased expression
- expression of CD127 and CD62L on LCMV-specific CD8^+ T cells [9]: enhanced expression
- percentage of virus-specific CD8^+ T cells in PBMCs [9]: greater
- recall responses [9]: enhanced
- T cell contraction [10]: slower
- number of memory CD8^+ T cells maintained [10]: higher number
- LCMV-specific CD8^+ T cell response [11]: enhanced
- contraction of the T cell response [11]: minimal contraction
- expression of CD127, CD62L, and Bcl-2 on memory CD8^+ T cells [11]: higher levels
- frequency of KLRG-1^Low memory CD8^+ T cells [11]: higher frequency
- number of GP33 epitope-specific CD8^+ T cells in PBMCs [11]: higher number
- number of epitope-specific CD8^+ T cells (GP33, GP276, NP396, NP205, GP118) in spleen [11]: enhanced the number
- numbers of antigen-specific CD8^+ T cells in lymphoid and non-lymphoid tissues [11]: Increased numbers
- phenotype of virus-specific CD8^+ T cells [11]: CD127^High CD62L^High KLRG-1^Low Bcl-2^High phenotype
- Blood levels of rapamycin [12]: 5 to 15 ng/mL
- blood concentration ([13]; 0.6 mg/kg (600 μg/kg) intraperitoneally daily): 40 to 100 ng/mL
- blood concentration ([13]; low dose 0.075 mg/kg (75 μg/kg) daily): 5 to 20 ng/mL
- Bcl-2 expression in Day 8 effector CD8^+ T cells [14]: higher levels
- death of effector CD8^+ T cells during contraction phase [14]: only minimal death
- phenotype of memory CD8^+ T cells [14]: similar
- proportion of CD127^High KLRG-1^Low cells among Day 8 effector CD8^+ T cells [14]: higher proportion
- absolute number of DbGP33 tetramer-positive P14 cells in spleen ([15]; Day 5 post-challenge, vs untreated): greater
- recall responses of memory CD8^+ T cells differentiated with rapamycin ([15]; rapamycin 25 days, VVGP33 challenge Day 28 post-transfer): better
- percentage of DbGP33 tetramer-positive P14 cells in the spleen ([15]; rapamycin for 25 days, VVgp33 challenge Day 28, Day 5 post-challenge, untreated 1.69%): 4.93%
- percentage of virus-specific CD8^+ T cells (DbGP33 tetramer) in PBMCs [16]: 2.49%
- phenotype of antigen-specific CD8^+ T cells from spleen ([17]; 34 days post-immunization): markers of high quality memory T cells (CD127^High, CD62L^High, KLRG-1^Low, Bcl-2^High)
- memory T cell numbers relative to control ([17]; 165 days after stopping the drug treatment): 10 fold
- number of antigen-specific CD8^+ T cells maintained ([17]; PBMC and spleen (Day 34), vs control): higher number
- expansion of GP33 epitope-specific CD8^+ T cells after VLP immunization ([17]; low dose rapamycin from Day -1, PBMC, vs control): expanded similarly
- magnitude and quality of VLP-induced memory CD8^+ T cells ([17]; mouse, in vivo): enhanced both the magnitude and the quality
- number of virus-specific (DbGP33 tetramer-positive) CD8^+ T cells in spleen ([18]; 0.075 mg/kg Day -1 to Day 34, Day 35 post-vaccination): significantly increased
- phenotype of virus-specific CD8^+ T cells ([18]; 0.075 mg/kg Day -1 to Day 34, spleen Day 35): markers of high quality memory T cells (CD127^High, CD62L^High, KLRG-1^Low, Bcl-2^High)
